The results in this text go back to ChEMBL document CHEMBL1145404, “o-Naphthalenedicarboxaldehyde derivative of 7'-aminonaltrindole as a selective delta-opioid receptor affinity label” (J Med Chem, 2007).

SMILES strings stand for the structures.

Assay [1] deals with Delta-type opioid receptor (Mus musculus, UniProt P32300). Kind of assay: Agonist activity at delta opioid receptor in mouse vas deferens. It counts as functional, tissue-based.
Assay [2] has as its target Opioid receptors; mu & delta (Homo sapiens) (UniProt P41143+P35372). Kind of assay: Selectivity for human delta opioid receptor to human mu opioid receptor. It counts as protein assay.
Assay [3] concerns the target Opioid receptors; delta & kappa (Homo sapiens) (UniProt P41145+P41143). Kind of assay: Selectivity for human delta opioid receptor to human kappa opioid receptor. It counts as protein assay.
For assay [4], the target named is Delta-type opioid receptor (Homo sapiens, UniProt P41143). Kind of assay: Displacement of [3H]diprenorphine from delta opioid receptor expressed in human HEK293 cells. It counts as cell-based.
Chain of Delta-type opioid receptor (Homo sapiens, UniProt P41143) (P41143 whole entry): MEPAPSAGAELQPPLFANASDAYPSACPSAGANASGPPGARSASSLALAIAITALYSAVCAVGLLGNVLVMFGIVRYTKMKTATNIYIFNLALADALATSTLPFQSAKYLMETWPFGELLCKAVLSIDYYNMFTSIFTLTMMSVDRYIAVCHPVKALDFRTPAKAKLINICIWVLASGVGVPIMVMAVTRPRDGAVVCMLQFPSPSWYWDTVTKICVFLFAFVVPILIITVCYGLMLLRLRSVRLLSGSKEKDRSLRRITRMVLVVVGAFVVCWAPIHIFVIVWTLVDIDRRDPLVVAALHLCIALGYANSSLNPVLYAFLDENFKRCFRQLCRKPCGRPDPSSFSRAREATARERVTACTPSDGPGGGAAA
For assay [5], the target named is Mu-type opioid receptor (Cavia porcellus, UniProt P97266). Kind of assay: Agonist activity at mu opioid receptor in guinea pig ileum longitudinal muscle. It counts as functional, tissue-based.
Chain of Mu-type opioid receptor (Cavia porcellus, UniProt P97266) (P97266 whole entry): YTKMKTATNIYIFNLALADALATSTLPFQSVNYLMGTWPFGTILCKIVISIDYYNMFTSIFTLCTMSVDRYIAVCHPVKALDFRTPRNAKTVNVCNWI
Assay [6] concerns the target Mu-type opioid receptor (Homo sapiens, UniProt P35372). Kind of assay: Displacement of [3H]diprenorphine from mu opioid receptor expressed in human HEK293 cells. It counts as cell-based.
In assay [7] the target is Kappa-type opioid receptor (Homo sapiens, UniProt P41145). Kind of assay: Displacement of [3H]diprenorphine from kappa opioid receptor expressed in human HEK293 cells. The format is cell-based.
Chain of Kappa-type opioid receptor (P41145 whole entry): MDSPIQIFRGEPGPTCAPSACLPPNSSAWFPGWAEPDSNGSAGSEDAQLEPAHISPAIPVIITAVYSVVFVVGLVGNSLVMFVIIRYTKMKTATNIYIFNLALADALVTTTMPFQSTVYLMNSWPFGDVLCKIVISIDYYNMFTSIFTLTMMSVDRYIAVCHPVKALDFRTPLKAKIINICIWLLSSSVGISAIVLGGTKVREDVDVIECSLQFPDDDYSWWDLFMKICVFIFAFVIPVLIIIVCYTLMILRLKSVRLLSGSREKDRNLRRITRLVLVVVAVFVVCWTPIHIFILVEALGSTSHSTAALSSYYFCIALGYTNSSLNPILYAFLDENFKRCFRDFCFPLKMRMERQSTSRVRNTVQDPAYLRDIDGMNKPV

Chain of Opioid receptors; mu & delta (Homo sapiens) (P35372 whole entry, looked up): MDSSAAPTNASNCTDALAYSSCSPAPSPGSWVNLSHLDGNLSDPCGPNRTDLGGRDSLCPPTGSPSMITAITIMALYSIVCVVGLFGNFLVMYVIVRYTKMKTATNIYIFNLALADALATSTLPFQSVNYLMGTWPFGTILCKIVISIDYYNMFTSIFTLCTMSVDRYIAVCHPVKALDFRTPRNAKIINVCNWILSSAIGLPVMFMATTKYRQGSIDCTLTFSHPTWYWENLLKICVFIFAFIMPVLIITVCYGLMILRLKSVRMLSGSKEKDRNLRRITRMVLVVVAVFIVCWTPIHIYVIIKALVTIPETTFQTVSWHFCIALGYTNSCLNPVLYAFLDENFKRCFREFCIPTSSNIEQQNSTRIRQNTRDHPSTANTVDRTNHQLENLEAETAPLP
Chain of Opioid receptors; mu & delta (Homo sapiens) (P41143 whole entry, looked up): as the sequence (P41143 whole entry) above
Chain of Mu-type opioid receptor (Homo sapiens, UniProt P35372) (P35372 whole entry): as the sequence (P35372 whole entry, looked up) above
Chain of Delta-type opioid receptor (Mus musculus, UniProt P32300) (P32300 whole entry): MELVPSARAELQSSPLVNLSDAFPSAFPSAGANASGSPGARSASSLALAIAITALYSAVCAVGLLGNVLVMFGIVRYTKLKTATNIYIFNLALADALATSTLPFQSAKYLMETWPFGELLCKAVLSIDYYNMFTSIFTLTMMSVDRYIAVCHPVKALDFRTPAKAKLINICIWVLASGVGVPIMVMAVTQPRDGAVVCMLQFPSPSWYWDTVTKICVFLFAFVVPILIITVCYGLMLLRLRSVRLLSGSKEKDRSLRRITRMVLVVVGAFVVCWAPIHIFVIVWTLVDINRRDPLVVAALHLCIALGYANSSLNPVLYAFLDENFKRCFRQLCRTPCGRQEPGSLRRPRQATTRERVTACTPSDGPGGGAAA
Chain of Opioid receptors; delta & kappa (Homo sapiens) (P41143 whole entry, looked up): as the sequence (P41143 whole entry) above
Chain of Opioid receptors; delta & kappa (Homo sapiens) (P41145 whole entry, looked up): as the sequence (P41145 whole entry) above

With `O=Cc1cc2ccc(C(=O)Nc3cccc4c5c([nH]c34)[C@@H]3Oc4c(O)ccc6c4[C@@]34CCN(CC3CC3)[C@H](C6)[C@]4(O)C5)cc2cc1C=O`, the IC50 in assay [1] is 0.46 nM; at Mu-type opioid receptor [5] it was 19.5 nM. For the same molecule, the Ratio Ki was found to be 64 in assay [2] and 68 in assay [3]. Moreover, the figures for the Ki (in assay [4]; on Mu-type opioid receptor [6]; in assay [7]) were 2.25 nM, 144 nM and 153 nM, respectively.

The IC50 is the midpoint of a concentration-inhibition curve. Higher therefore signals weaker potency. As usually defined, the Ki is the equilibrium dissociation constant of an inhibitor or competing ligand from its target.
